A word on the stoichiometry N: it is the number of molecules, sites or subunits per partner or assembly.

The target in experiment [1] is T1, MlaBDEFab (Acinetobacter baumannii, UniProt A0A4P2WWN2+V5V921+V5V9F4).
T1 construct: gene ttg2A; full mla operon expressed in E. coli BL21(DE3), Ni-NTA purified (tag not described), in DDM; C2 complex MlaF2-MlaE2-MlaD6-MlaB2 (about half of particles with one MlaB)
Kind of experiment: cryo-EM map, […] A (no model deposited). The class given is binding. The conditions noted are these: protein mixed 1:1 with 20 mM nucleotide, pH 8.0, 0.025% DDM; same nucleotide site; EMD-11084 in Table 1.

The target of experiment [2] is T1, MlaBDEFab. Kind of experiment: cryo-EM structure, […] A. The experiment is classed as binding. The conditions noted are these: Mg2+ seen in site; protein mixed 1:1 with 20 mM nucleotide, pH 8.0, 0.025% DDM; nucleotide site at MlaF/MlaE/MlaD interface (MlaF Lys55, Ser51, His211, Arg26); non-hydrolysable ATP analogue.
Experiment [3] has as its target MlaD of the A. baumannii MlaBDEF complex (MlaBDEFab) (Acinetobacter baumannii) (UniProt V5V921). Nature of the experiment: cryo-EM structure; single-particle cryo-EM of the purified MlaBDEFab complex in DDM; 20 mM Hepes (pH 7.0), 150 mM NaCl, 0.025% (w/v) DDM; with AppNHp (3.9 Å, atomic model), also apo (~4.2 Å) and with ADP (~4.4 Å).
Experiment [4] deals with MlaF of the A. baumannii MlaBDEF complex (MlaBDEFab) (Acinetobacter baumannii). The experiment is described as above.

Regarding `Nc1ncnc2c1ncn2[C@@H]1O[C@H](COP(=O)(O)OP(=O)(O)O)[C@@H](O)[C@H]1O` [ADP], on MlaBDEFab [1], the “cryo-EM map, 4.43 A (no model deposited)” value is “confirms the presence of nucleotide in the AppNHp and ADP maps”.
In the case of `Nc1ncnc2c1ncn2[C@@H]1O[C@H](COP(=O)(O)OP(=O)(O)NP(=O)(O)O)[C@@H](O)[C@H]1O` [AppNHp], the “cryo-EM structure, 3.92 A” value at MlaBDEFab [2] is “we observed clear density of the nucleotide and magnesium, within the MlaF binding pocket”.
In turn, “MlaD of the A. baumannii MlaBDEF complex (MlaBDEFab) (from UniProt V5V921 1-226) (natural protein)” yielded a stoichiometry N in experiment [3] of 6.

B1: MlaB of the A. baumannii MlaBDEF complex (MlaBDEFab) (natural protein)
chain: MVQYLNQELVVSGKIDFENAEQQYQAGLAIIKKQTSFPLIVDLKQLEHGNTLALAVLVQWLRQTPQKSGLHFKNVPEKMLKIIQACHLQEDLHLV
For the molecule B1, the percent of particles with MlaB bound to both MlaF in experiment [4] amounted to 50%.

The values above are taken from PMC8241846, “Structure and lipid dynamics in the maintenance of lipid asymmetry inner membrane complex of A. baumannii” (Communications Biology, 2021).
